According to patent US5194605A, “Cyclic renin inhibitors containing 2-substituted (3S,4S)-4-amino-5-cyclohexyl-3-hydroxy pentanoic acid, 2-substituted (3S,4S)-5-cyclohexyl-3,4-di-hydroxy pentanoic acid or 2-substituted (4S,5S)-5-amino-6-cyclohexyl-4-hydroxyhexanoic acid or its analogs” (Merck & Co., Inc., priority 1991, dated 1993):
Read-outs that look alike come from different tables or passages of the source. Square brackets hold non-standard residues; d marks the D form. Peptide text beside a SMILES is read from it. * marks the point of attachment. Sta = CC(C)C[C@H](N)[C@@H](O)CC(=O)O; Isovaleryl = CC(C)CC(=O)*

Assays:
[1] = amide bond, DPPA, Et3N, DMF, 1.75 mM, 4.0 °C
[2] = test system: conscious sodium-deficient Rhesus monkeys; assay: intravenous evaluation of renin inhibitors in conscious sodium-deficient Rhesus monkeys (blood pressure lowering); assay type: in vivo, Rhesus monkey; conditions: i.v. bolus, mean arterial pressure
Description: The following methods were used for in vivo evaluation of the renin inhibitors of Formula I: Intravenous evaluation of renin inhibitors in concious sodium-deficient Rhesus monkeys: Rhesus monkeys, male and female, weighing 2.6-4.5 Kg, were surgically prepared with chronic arterial and venous catheters and vascular access ports for direct monitoring of mean arterial pressure (MAP) and heart rate (HR). The animals were maintained on a low sodium diet (1.2 mmol Na/day) plus friut for a week, and administered LASIX (furosemide) at 2.5 mg/Kg, intramuscularly the evening prior to the experiment. […] The inhibitors were administered by bolus injection using 0.5% acetic acid-5% dextrose in water as the vehicle (0.4 ml/Kg), and MAP and HR were measured. […] PRA was determined as described above. […] A projected ED50 dose for each inhibitor was calculated using the following furmula: ED50 (Test Inhibitor, umoles/Kg)=ED50 (SCRIP)×[IC50 (Test Inhibitor)/IC50 (SCRIP)], where the IC50 values were determined against human plasma renin. […] Percent inhibition of monkey PRA, changes in MAP and HR were calculated and plotted against time. […] The inhibitors were administered orally as a solution (2.5 ml/Kg) in 0.1M citric acid, and MAP and HR were measured over time. […] Percent inhibition of primate PRA and peak changes in MAP and HR were calculated. […]

In the case of `COC(=O)[C@H]1CCCCNC(=O)CC[C@H](NC(=O)OC(C)(C)C)C(=O)N[C@@H](CC2CCCCC2)[C@H]1O`, the ring closure, yield of all isomers ([1]; from COC(=O)[C@@H](CCCCN)[C@H](O)[C@H](CC1CCCCC1)NC(=O)[C@H](CCC(=O)O)NC(=O)OC(C)(C)C, 120.3 h) is reported as 62%.

In the case of `CC[C@H](C)CNC(=O)[C@H]1CCCCNC(=O)CC[C@H](NC(=O)OC(C)(C)C)C(=O)N[C@@H](CC2CCCCC2)[C@H]1O`, the ring closure, yield of all isomers ([1]; from CC[C@H](C)CNC(=O)[C@@H](CCCCN)[C@H](O)[C@H](CC1CCCCC1)NC(=O)[C@H](CCC(=O)O)NC(=O)OC(C)(C)C, 120.3 h, 2 steps) is reported as 62%.

In the case of `CC(C)CC(=O)N[C@@H](Cc1cnc[nH]1)C(=O)N1CCC[C@H]1C(=O)N[C@@H](Cc1ccccc1)C(=O)N[C@@H](Cc1cnc[nH]1)C(=O)N[C@@H](CC(C)C)[C@@H](O)CC(=O)N[C@@H](CC(C)C)C(=O)N[C@@H](Cc1ccccc1)C(N)=O` [SCRIP, Iva-His-Pro-Phe-His-Sta-Leu-Phe-NH2] (Isovaleryl-HPFH[Sta]LF-NH2), the “ED50 (i.v. dose required to lower blood pressure by 50% of the maximal response)” value [2] is reported as 0.039 µmol/kg.

Compound `CC[C@H](C)CNC(=O)[C@H]1CCCNC(=O)CC[C@H](NC(=O)OC(C)(C)C)C(=O)N[C@@H](CC2CCCCC2)[C@H]1O` has a ring closure, yield of all isomers ([1]; from CC[C@H](C)CNC(=O)[C@@H](CCCN)[C@H](O)[C@H](CC1CCCCC1)NC(=O)[C@H](CCC(=O)O)NC(=O)OC(C)(C)C, 145.0 h) of 18%.
